Reference: the NIST ThermoML archive (doi:10.1016/j.jct.2017.06.001)

Experiment: xn = mol fraction of the nth substance listed
Conditions: 100 kPa, Liquid; for speed of sound: Frequency=5 MHz, Pulse-echo method; for mass density: Vibrating tube method

OCCCCCO [1,5-pentanediol] + O
Conditions	mass density [kg/m3]	speed of sound [m/s]
288.15 K, x1 = 0.005	998.88	–
288.15 K, x1 = 0.0101	999.03	–
288.15 K, x1 = 0.0196	999.79	–
288.15 K, x1 = 0.0251	1000.47	–
288.15 K, x1 = 0.0304	1001.25	–
288.15 K, x1 = 0.05	1003.56	–
288.15 K, x1 = 0.0769	1005.76	–
288.15 K, x1 = 0.1002	1007.25	–
288.15 K, x1 = 0.1438	1008.43	–
288.15 K, x1 = 0.1845	1008.63	–
288.15 K, x1 = 0.206	–	1706.1
288.15 K, x1 = 0.2108	–	1706.3
288.15 K, x1 = 0.2162	–	1706.4
288.15 K, x1 = 0.2177	–	1706.4
288.15 K, x1 = 0.2203	–	1706.5
288.15 K, x1 = 0.2319	–	1706.5
288.15 K, x1 = 0.2402	–	1706.4
288.15 K, x1 = 0.25	–	1706.2
288.15 K, x1 = 0.2503	1007.9	–
288.15 K, x1 = 0.2599	–	1706
288.15 K, x1 = 0.2695	–	1705.6
288.15 K, x1 = 0.283	–	1705
288.15 K, x1 = 0.3	1006.94	–
288.15 K, x1 = 0.3004	–	1704.1
288.15 K, x1 = 0.3171	–	1703
288.15 K, x1 = 0.3343	1006.2	–
288.15 K, x1 = 0.3398	–	1701.4
288.15 K, x1 = 0.3601	–	1699.8
288.15 K, x1 = 0.3882	–	1697.2
288.15 K, x1 = 0.4171	1004.47	–
288.15 K, x1 = 0.4185	–	1694.2
288.15 K, x1 = 0.4484	–	1690.8
288.15 K, x1 = 0.454	1003.59	–
288.15 K, x1 = 0.4755	–	1687.5
288.15 K, x1 = 0.4893	–	1685.8
288.15 K, x1 = 0.5003	1002.5	–
288.15 K, x1 = 0.508	–	1683.4
288.15 K, x1 = 0.5305	–	1680.3
288.15 K, x1 = 0.5362	1001.6	–
288.15 K, x1 = 0.5516	–	1677.4
288.15 K, x1 = 0.5741	–	1674.2
288.15 K, x1 = 0.5932	–	1671.5
288.15 K, x1 = 0.6177	999.9	–
288.15 K, x1 = 0.6187	–	1667.9
288.15 K, x1 = 0.6383	–	1665
288.15 K, x1 = 0.6478	999.3	–
288.15 K, x1 = 0.6592	–	1662.1
288.15 K, x1 = 0.6819	–	1658.9
288.15 K, x1 = 0.7025	998.2	–
288.15 K, x1 = 0.7043	–	1655.7
288.15 K, x1 = 0.7236	–	1653.1
288.15 K, x1 = 0.7443	–	1650.3
288.15 K, x1 = 0.7504	997.4	–
288.15 K, x1 = 0.7647	–	1647.6
288.15 K, x1 = 0.7836	–	1645.2
288.15 K, x1 = 0.7927	996.5	–
288.15 K, x1 = 0.8018	–	1642.8
288.15 K, x1 = 0.8231	–	1640.1
288.15 K, x1 = 0.8417	–	1637.8
288.15 K, x1 = 0.8605	995.2	–
288.15 K, x1 = 0.8609	–	1635.4
288.15 K, x1 = 0.8783	–	1633.2
288.15 K, x1 = 0.8967	–	1630.9
288.15 K, x1 = 0.9004	994.4	–
288.15 K, x1 = 0.9133	–	1628.7
288.15 K, x1 = 0.9388	–	1625.3
288.15 K, x1 = 0.9496	993.3	–
288.15 K, x1 = 0.9515	–	1623.6
288.15 K, x1 = 0.9651	–	1621.7
288.15 K, x1 = 0.9837	–	1618.9
288.15 K, x1 = 1	992.2	1616.4
293.15 K, x1 = 0.0002	–	1483
293.15 K, x1 = 0.0004	–	1483.8
293.15 K, x1 = 0.0005	–	1484.4
293.15 K, x1 = 0.0008	–	1485.6
293.15 K, x1 = 0.0012	–	1487
293.15 K, x1 = 0.0017	–	1489
293.15 K, x1 = 0.0021	–	1490.8
293.15 K, x1 = 0.0029	–	1493.7
293.15 K, x1 = 0.0037	–	1496.8
293.15 K, x1 = 0.0043	–	1499.2
293.15 K, x1 = 0.005	–	1501.8
293.15 K, x1 = 0.0057	–	1504.5
293.15 K, x1 = 0.0064	–	1506.9
293.15 K, x1 = 0.0071	–	1509.3
293.15 K, x1 = 0.0078	–	1511.9
293.15 K, x1 = 0.0085	–	1514.3
293.15 K, x1 = 0.0091	–	1516.7
293.15 K, x1 = 0.0098	–	1519
293.15 K, x1 = 0.0107	–	1522
293.15 K, x1 = 0.0113	–	1524.2
293.15 K, x1 = 0.012	–	1526.6
293.15 K, x1 = 0.0128	–	1529.1
293.15 K, x1 = 0.0136	–	1531.6
293.15 K, x1 = 0.0143	–	1534
293.15 K, x1 = 0.015	–	1536.2
293.15 K, x1 = 0.0158	–	1538.5
293.15 K, x1 = 0.0165	–	1540.7
293.15 K, x1 = 0.0172	–	1543
293.15 K, x1 = 0.018	–	1545.3
293.15 K, x1 = 0.0189	–	1547.8
293.15 K, x1 = 0.0198	–	1550.5
293.15 K, x1 = 0.0206	–	1552.8
293.15 K, x1 = 0.0214	–	1555.3
293.15 K, x1 = 0.0224	–	1557.8
293.15 K, x1 = 0.0232	–	1560.2
293.15 K, x1 = 0.0241	–	1562.7
293.15 K, x1 = 0.0254	–	1566
293.15 K, x1 = 0.0263	–	1568.5
293.15 K, x1 = 0.0276	–	1571.6
293.15 K, x1 = 0.0285	–	1573.9
293.15 K, x1 = 0.0294	–	1576.1
293.15 K, x1 = 0.0302	–	1578.2
293.15 K, x1 = 0.0314	–	1580.8
293.15 K, x1 = 0.0323	–	1583.1
293.15 K, x1 = 0.0333	–	1585.3
293.15 K, x1 = 0.0343	–	1587.6
293.15 K, x1 = 0.0355	–	1590.1
293.15 K, x1 = 0.0368	–	1592.9
293.15 K, x1 = 0.0383	–	1596.3
293.15 K, x1 = 0.0398	–	1599.2
293.15 K, x1 = 0.0408	–	1601.4
293.15 K, x1 = 0.0418	–	1603.3
293.15 K, x1 = 0.0435	–	1606.5
293.15 K, x1 = 0.0451	–	1609.5
293.15 K, x1 = 0.0472	–	1613.3
293.15 K, x1 = 0.0491	–	1616.6
293.15 K, x1 = 0.0506	–	1619.2
293.15 K, x1 = 0.0528	–	1622.7
293.15 K, x1 = 0.0552	–	1626.4
293.15 K, x1 = 0.0569	–	1629
293.15 K, x1 = 0.0599	–	1633.3
293.15 K, x1 = 0.0612	–	1635.1
293.15 K, x1 = 0.0629	–	1637.4
293.15 K, x1 = 0.0645	–	1639.4
293.15 K, x1 = 0.0665	–	1641.9
293.15 K, x1 = 0.0684	–	1644.3
293.15 K, x1 = 0.0711	–	1647.4
293.15 K, x1 = 0.0738	–	1650.3
293.15 K, x1 = 0.077	–	1653.6
293.15 K, x1 = 0.08	–	1656.5
293.15 K, x1 = 0.0837	–	1659.9
293.15 K, x1 = 0.0871	–	1662.8
293.15 K, x1 = 0.0895	–	1664.7
293.15 K, x1 = 0.0944	–	1668.3
293.15 K, x1 = 0.0974	–	1670.4
293.15 K, x1 = 0.1023	–	1673.5
293.15 K, x1 = 0.1068	–	1676.1
293.15 K, x1 = 0.1108	–	1678.1
293.15 K, x1 = 0.1168	–	1680.9
293.15 K, x1 = 0.121	–	1682.7
293.15 K, x1 = 0.1249	–	1684.1
293.15 K, x1 = 0.1295	–	1685.7
293.15 K, x1 = 0.1356	–	1687.5
293.15 K, x1 = 0.1401	–	1688.7
293.15 K, x1 = 0.1445	–	1689.8
293.15 K, x1 = 0.1521	–	1691.3
